According to patent US20160272617A1, “SUBSTITUTED PHENYLALANINE DERIVATIVES” (BAYER PHARMA AKTIENGESELLSCHAFT, priority 2013, published 2016):
Structures can show the parent of a compound that is named as a salt.

Tests used:
human factor XIa = biological target: T1, human factor XIa (Homo sapiens, UniProt P03951); assay: Measurement of FXIa inhibition (fluorogenic peptide substrate Boc-Glu(OBzl)-Ala-Arg-AMC); assay type: biochemical; settings: factor XIa from Kordia, 15 min preincubation, 30 min at 22° C., fluorescence
T1 construct: purchased Kordia
Procedure, shortened: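 Released AMC fluorescence (360/460 nm) read after 30 min at 22 °C. The reaction was started with Boc-Glu(OBzl)-Ala-Arg-AMC (10 μM stock) after a 15 min preincubation of the enzyme (0.45 nM stock) with compound (final 50 μM to 0.00013 μM).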

human plasmin = biological target: T2, human plasmin (Homo sapiens, UniProt P00747); assay: Measurement of plasmin inhibition (fluorogenic peptide substrate MeOSuc-Ala-Phe-Lys-AMC); assay type: biochemical; settings: plasmin from Kordia, 15 min preincubation, 30 min at 22° C., fluorescence
T2 construct: purchased Kordia
Method: The plasmin inhibition of the inventive substances is determined using a biochemical test system which utilizes the reaction of a peptidic plasmin substrate to determine the enzymatic activity of human plasmin. Here, plasmin cleaves from the peptic plasmin substrate the C-terminal aminomethylcoumarin (AMC), the fluorescence of which is measured. The determinations are carried out in microtitre plates.
Test substances are dissolved in dimethyl sulphoxide and serially diluted in dimethyl sulphoxide (3000 μM to 0.0078 μM; resulting final concentrations in the test: 50 μM to 0.00013 μM). In each case 1 μl of the diluted substance solutions are placed into the wells of white microtitre plates from Greiner (384 wells). Subsequently, the following are added successively: 20 μl of assay buffer (50 mmol/Tris buffer pH 7.4; 100 mmol/l sodium chloride; 5 mmol/calcium chloride; 0.1% bovine serum albumin) and 20 μl of plasmin from Kordia (0.3 μg/ml in assay buffer) are then added successively. After 15 min of incubation, the enzyme reaction is started by addition of 20 μl of the plasmin substrate MeOSuc-Ala-Phe-Lys-AMC dissolved in assay buffer (150 μM in assay buffer) from Bachem, the mixture is incubated at room temperature (22° C.) for 30 min and fluorescence is then measured (excitation: 360 nm, emission: 460 nm). The measured emissions of the test batches with test substance are compared to those of control batches without test substance (only dimethyl sulphoxide instead of test substance in dimethyl sulphoxide), and the IC50 values are calculated from the concentration/activity relationships.

human and animal plasma = assay: Determination of anticoagulatory activity: activated partial thromboplastin time (aPTT) in plasma; settings: concentration of test substance which brings about a 1.5-fold extension of the aPTT; plasma species not given
Procedure, shortened: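 Citrated plasma (1:9, 0.11 M citrate; 4000 g, 15 min) from human or animal blood incubated with test compound and cephalin/kaolin PTT reagent for 3 min at 37° C.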

T1 sequence (P03951 388-625 limits assumed): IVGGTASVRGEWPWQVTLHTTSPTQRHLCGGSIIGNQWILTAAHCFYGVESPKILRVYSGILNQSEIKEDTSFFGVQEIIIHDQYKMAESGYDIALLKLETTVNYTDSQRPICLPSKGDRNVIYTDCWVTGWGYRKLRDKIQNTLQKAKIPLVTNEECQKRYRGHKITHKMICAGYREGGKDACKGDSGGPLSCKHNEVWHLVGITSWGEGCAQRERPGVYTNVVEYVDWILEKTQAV
T1 sequence (P03951 19-387 partner limits assumed): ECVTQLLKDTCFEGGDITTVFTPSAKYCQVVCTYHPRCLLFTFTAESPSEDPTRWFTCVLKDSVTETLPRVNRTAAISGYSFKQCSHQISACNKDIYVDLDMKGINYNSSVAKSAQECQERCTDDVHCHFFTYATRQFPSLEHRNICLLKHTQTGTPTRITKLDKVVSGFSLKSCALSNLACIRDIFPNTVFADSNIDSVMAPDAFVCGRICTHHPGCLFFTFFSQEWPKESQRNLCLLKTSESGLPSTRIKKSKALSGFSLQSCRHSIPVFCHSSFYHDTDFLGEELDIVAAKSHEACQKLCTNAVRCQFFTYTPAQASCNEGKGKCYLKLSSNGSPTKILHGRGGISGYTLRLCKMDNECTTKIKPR
T2 sequence (P00747 581-810 limits assumed): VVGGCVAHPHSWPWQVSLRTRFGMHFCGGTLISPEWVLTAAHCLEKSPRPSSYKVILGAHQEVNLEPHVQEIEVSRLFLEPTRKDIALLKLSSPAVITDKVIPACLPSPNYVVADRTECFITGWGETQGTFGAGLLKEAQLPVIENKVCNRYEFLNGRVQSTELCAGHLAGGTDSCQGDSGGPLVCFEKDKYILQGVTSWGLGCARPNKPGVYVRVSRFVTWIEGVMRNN
T2 sequence (P00747 97-580 partner limits assumed): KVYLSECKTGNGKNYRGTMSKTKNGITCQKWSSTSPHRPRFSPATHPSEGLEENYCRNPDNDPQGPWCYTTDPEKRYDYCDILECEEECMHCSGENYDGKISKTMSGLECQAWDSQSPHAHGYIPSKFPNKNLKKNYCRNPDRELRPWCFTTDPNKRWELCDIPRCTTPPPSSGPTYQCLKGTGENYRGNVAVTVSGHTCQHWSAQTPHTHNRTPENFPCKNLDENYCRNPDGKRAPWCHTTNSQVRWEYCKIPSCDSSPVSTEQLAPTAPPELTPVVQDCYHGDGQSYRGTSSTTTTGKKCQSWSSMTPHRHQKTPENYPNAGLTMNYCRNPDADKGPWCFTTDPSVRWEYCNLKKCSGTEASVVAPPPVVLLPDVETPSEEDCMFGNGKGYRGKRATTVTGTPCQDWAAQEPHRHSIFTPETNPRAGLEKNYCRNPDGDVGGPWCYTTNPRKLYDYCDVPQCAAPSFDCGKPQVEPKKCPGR

SMILES | IC50 (human factor XIa) [nM] | IC50 (human plasmin) [nM] | aPTT (human and animal plasma) [µmol/L]
Cc1cc(C(=O)NC2CCC2)ccc1-c1ccc(C[C@H](NC(=O)[C@H]2CC[C@H](CN)CC2)C(=O)Nc2cc(Cl)c3oc(=O)[nH]c3c2)cc1 [Example 102, 4′-{(2S)-2-({[trans-4-(Aminomethyl)cyclohexyl]carbonyl}amino)-3-[(7-chloro-2-oxo-2,3-dihydro-1,3-benzoxazol-5-yl)amino]-3-oxopropyl}-N-cyclobutyl-2-methylbiphenyl-4-carboxamide hydrochloride] | 7.9 | 0.74 | 
Cc1cc(C(=O)NC(C)C)ccc1-c1ccc(C[C@H](NC(=O)C2CCC(CN)CC2)C(=O)Nc2ccc3cn[nH]c3c2)cc1 (single isomer, unassigned; enantiomer 2) [Example 170] | 5.6 | 1.3 | 
Cc1cc(C(=O)N2CCCC2)ccc1-c1ccc(C[C@H](NC(=O)[C@H]2CC[C@H](CN)CC2)C(=O)Nc2ccc(-c3nn[nH]n3)cc2)cc1 [Example 20, trans-4-(Aminomethyl)-N-[(2S)-3-[2′-methyl-4′-(pyrrolidin-1-ylcarbonyl)biphenyl-4-yl]-1-oxo-1-{[4-(2H-tetrazol-5-yl)phenyl]amino}propan-2-yl]cyclohexanecarboxamide] | 1.8 | 5.7 | 
Cc1cc(C(=O)NC2CCC2)ccc1-c1ccc(C[C@H](NC(=O)[C@H]2CC[C@H](CN)CC2)C(=O)Nc2ccc3cc(C(=O)O)[nH]c3c2)cc1 [Example 160, 6-({(2S)-2-({[trans-4-(Aminomethyl)cyclohexyl]carbonyl}amino)-3-[4′-(cyclobutylcarbamoyl)-2′-methylbiphenyl-4-yl]propanoyl}amino)-1H-indole-2-carboxylic acid hydrochloride] | 5.2 | 1.3 | 
Cc1nnc(-c2ccc(NC(=O)[C@H](Cc3ccc(-c4ccc(C(=O)NC5CCNCC5)cc4C)cc3)NC(=O)[C@H]3CC[C@H](CN)CC3)cc2)[nH]1 [Example 56, 4′-[(2S)-2-({[trans-4-(Aminomethyl)cyclohexyl]carbonyl}amino)-3-{[4-(3-methyl-4H-1,2,4-triazol-5-yl)phenyl]amino}-3-oxopropyl]-2-methyl-N-(piperidin-4-yl)biphenyl-4-carboxamide hydrochloride] | 48 |  | 0.44
CCN(C)C1CCC(NC(=O)c2ccc(-c3ccc(C[C@H](NC(=O)[C@H]4CC[C@H](CN)CC4)C(=O)Nc4ccc(-c5nnn[nH]5)cc4)cc3)c(C)c2)CC1 (stereo partly drawn) [Example 150, 4′-[(2S)-2-({[trans-4-(Aminomethyl)cyclohexyl]carbonyl}amino)-3-oxo-3-{[4-(1H-tetrazol-5-yl)phenyl]amino}propyl]-N-{4-[ethyl(methyl)amino]cyclohexyl}-2-methylbiphenyl-4-carboxamide hydrochloride] | 2.5 |  | 0.07
Cc1cc(C(=O)NC2CCN(C(C)C)CC2)ccc1-c1ccc(C[C@H](NC(=O)[C@H]2CC[C@H](CN)CC2)C(=O)Nc2ccc(-c3nn[nH]n3)cc2)cc1 [Example 40, 4′-[(2S)-2-({[trans-4-(Aminomethyl)cyclohexyl]carbonyl}amino)-3-oxo-3-{[4-(2H-tetrazol-5-yl)phenyl]amino}propyl]-N-(1-isopropylpiperidin-4-yl)-2-methylbiphenyl-4-carboxamide hydrochloride] | 3.6 |  | 0.11
CCN(CC)CCNC(=O)c1ccc(-c2ccc(C[C@H](NC(=O)[C@H]3CC[C@H](CN)CC3)C(=O)Nc3ccc4c(=O)[nH][nH]c4c3)cc2)c(C)c1 [Example 23, 4′-{(2S)-2-({[trans-4-(Aminomethyl)cyclohexyl]carbonyl}amino)-3-oxo-3-[(3-oxo-2,3-dihydro-1H-indazol-6-yl)amino]propyl}-N-[2-(diethylamino)ethyl]-2-methylbiphenyl-4-carboxamide hydrochloride] | 27.5 |  | 0.28
Cc1cc(C(=O)N[C@H]2CC[C@H](O)CC2)ccc1-c1ccc(C[C@H](NC(=O)[C@H]2CC[C@H](CN)CC2)C(=O)Nc2ccc(-c3nnc(C(F)(F)C(F)(F)C(=O)O)[nH]3)cc2)cc1 (single isomer, unassigned; enantiomer 1) [Example 104] | 0.4 |  | 0.05
CCN(CC)CCNC(=O)c1ccc(-c2ccc(C[C@H](NC(=O)[C@H]3CC[C@H](CN)CC3)C(=O)Nc3ccc(-c4nn[nH]n4)cc3)cc2)c(Cl)c1 [Example 10, 4′-[(2S)-2-({[trans-4-(Aminomethyl)cyclohexyl]carbonyl}amino)-3-oxo-3-{[4-(2H-tetrazol-5-yl)phenyl]amino}propyl]-2-chloro-N-[2-(diethylamino)ethyl]biphenyl-4-carboxamide hydrochloride] | 4.4 |  | 0.13
Cc1cc(C(=O)N[C@@H]2CCNC2)ccc1-c1ccc(C[C@H](NC(=O)[C@H]2CC[C@H](CN)CC2)C(=O)Nc2ccc(-c3nn[nH]n3)cc2)cc1 [Example 8, 4′-[(2S)-2-({[trans-4-(Aminomethyl)cyclohexyl]carbonyl}amino)-3-oxo-3-{[4-(2H-tetrazol-5-yl)phenyl]amino}propyl]-2-methyl-N-[(3R)-pyrrolidin-3-yl]biphenyl-4-carboxamide hydrochloride] | 2.5 |  | 0.09
Cc1cc(C(=O)NC2CCNCC2)ccc1-c1ccc(C[C@H](NC(=O)[C@H]2CC[C@H](CN)CC2)C(=O)Nc2ccc3nc(C(F)F)[nH]c3c2)cc1 [Example 86, 4′-[(2S)-2-({[trans-4-(Aminomethyl)cyclohexyl]carbonyl}amino)-3-{[2-(difluoromethyl)-1H-benzimidazol-6-yl]amino}-3-oxopropyl]-2-methyl-N-(piperidin-4-yl)biphenyl-4-carboxamide hydrochloride] | 13 |  | 0.14
Cc1cc(C(=O)NC2CCNCC2)ccc1-c1ccc(C[C@H](NC(=O)[C@H]2CC[C@H](CN)CC2)C(=O)Nc2ccc3nc(C(F)(F)F)[nH]c3c2)cc1 [Example 52, 4′-[(2S)-2-({[trans-4-(Aminomethyl)cyclohexyl]carbonyl}amino)-3-oxo-3-{[2-(trifluoromethyl)-1H-benzimidazol-6-yl]amino}propyl]-2-methyl-N-(piperidin-4-yl)biphenyl-4-carboxamide hydrochloride] | 14 |  | 0.2
Cc1cc(C(=O)NC2CCCNC2=O)ccc1-c1ccc(C[C@H](NC(=O)[C@H]2CC[C@H](CN)CC2)C(=O)Nc2ccc(-c3nnc(C(F)(F)C(F)(F)C(=O)O)[nH]3)cc2)cc1 (stereo partly drawn) [Example 155, 3-[5-(4-{[(2S)-2-({[trans-4-(Aminomethyl)cyclohexyl]carbonyl}amino)-3-{2′-methyl-4′-[(2-oxopiperidin-3-yl)carbamoyl]biphenyl-4-yl}propanoyl]amino}phenyl)-4H-1,2,4-triazol-3-yl]-2,2,3,3-tetrafluoropropanoic acid hydrochloride] | 1 |  | 0.16
Cc1cc(C(=O)N[C@H]2CC[C@H](O)CC2)ccc1-c1ccc(C[C@H](NC(=O)[C@H]2CC[C@H](CN)CC2)C(=O)Nc2ccc(-c3nc(C(F)(F)C(F)(F)CO)n[nH]3)cc2)cc1 [Example 110, 4′-[(2S)-2-({[trans-4-(Aminomethyl)cyclohexyl]carbonyl}amino)-3-oxo-3-({4-[3-(1,1,2,2-tetrafluoro-3-hydroxypropyl)-1H-1,2,4-triazol-5-yl]phenyl}amino)propyl]-N-(trans-4-hydroxycyclohexyl)-2-methylbiphenyl-4-carboxamide hydrochloride] | 1.8 |  | 0.11
